How the values were obtained:
[1] = test system: serum DHEA-S, DHEA, androstenedione; test: Phase 1/2a study: serum DHEA-S, DHEA, androstenedione; assay type: in vivo, human
Source text: (§1) Pharmacodynamic Analysis: Determination of Prostate Specific Antigen (PSA), serum testosterone, dehydroepiandrosterone (DHEA), dehydroepiandrosterone sulfate (DHEA-S), androstenedione, dihydrotestosterone (DHT), progesterone, cortisol, adrenocorticotropic hormone (ACTH), corticosterone, 11-dexoycorticosterone (11-DOC) and 11-deoxycortisol.

[2] = test system: serum testosterone; test: Phase 1/2a open-label study of i.m. abiraterone decanoate depot in advanced prostate cancer: serum testosterone; assay type: in vivo, human
Experimental: This is a Phase 1/2a, Open-label, Multicenter Study of Intramuscular Abiraterone Decanoate Depot in Patients with Advanced Prostate Cancer.
Formulations and dosing regimen: The formulation used in the study (abiraterone decanoate for intramuscular [i.m.] injection) is a solution formulation of abiraterone decanoate at a concentration of 180 mg/mL and will be provided as a 10 mL vial containing 990 mg of abiraterone decanoate in 5.5 mL of solution. See further details of the formulations in Example 2 (for each milliliter: Abiraterone Decanoate, about 180 mg/mL; Benzyl Alcohol, about 100 mg/mL; Benzyl Benzoate, about 200 mg/mL; and Corn oil, q.s. to 1 mL). Abiraterone Decanoate will be administered as an i.m. injection every 84 days (±3 days). Dose escalation will proceed with a modified Fibonacci sequence. Based on emerging data, intermediate doses may be evaluated.
Study Design: This is a Phase 1/2a, Open-label, Multicenter Study of Intramuscular Abiraterone Decanoate Depot in Patients with Advanced Prostate Cancer. In Phase 1, all patients will receive i.m. Abiraterone Decanoate depot in 84-day treatment cycles combined with daily oral prednisone or dexamethasone. In Phase 2a, patients will be randomized 1:1 and treated with i.m. Abiraterone Decanoate depot in 84-day treatment cycles in combination with dexamethasone (Arm A) or abiraterone acetate daily+prednisone (Arm B). In both Phases, patients will undergo scheduled periodic assessments of serum testosterone levels. Participants may continue treatment until they meet any discontinuation criteria outlined in the protocol.
Phase 1—Dose Escalation: Eligible patients with metastatic castration-sensitive prostate cancer (mCSPC) and patients with metastatic castration-resistant prostate cancer (mCRPC) will be enrolled. The initial dose of Abiraterone Decanoate to be administered is based on findings from completed non-human primate toxicology and pharmacology studies; dose escalation will proceed in a modified Fibonacci sequence. A Safety Review Committee (SRC) will be established to review available cohort safety data, and pharmacokinetic and pharmacodynamic findings (particularly testosterone suppression) to recommend a decision on dose escalation including whether intermediate doses should be explored.
as §1
Based on the available data, the recommended dose for Phase 2 is about 1260 mg abiraterone decanoate once every three months (12 weeks). All cohorts 1 and 2 in this clinical study were treated with prednisone, 5 mg orally once or twice daily; and all cohorts 3-5 were treated with dexamethasone, 0.5 mg orally once daily. The results shown herein for these cohorts should be understood accordingly.
The median baseline T level, calculated from mean of screening and Day 1 of Cycle 1 pre-dose samples, was 7.45 ng/dL.

`CCCCCCCCCC(=O)O[C@H]1CC[C@@]2(C)C(=CC[C@@H]3[C@@H]2CC[C@]2(C)C(c4cccnc4)=CC[C@@H]32)C1` [abiraterone decanoate] was tested, and the “serum DHEA-S level vs baseline” value ([1]; cohorts 1-5, FIG. 3B) was “significantly reduced”, the “serum DHEA level vs baseline” value ([1]; cohorts 1-5, FIG. 3C) was “significantly reduced” and the “serum androstenedione level vs baseline” value ([1]; cohorts 1-5, FIG. 3D) was “significantly reduced”. For the same compound, the “Serum Testosterone (% CFB)” value ([2]; Cohort 1, 180 mg i.m., Study Day 1 (baseline)) was 0%, the “Serum Testosterone (% CFB)” value ([2]; Cohort 1, 180 mg i.m., Study Day 2) was −33% and the “Serum Testosterone (% CFB)” value ([2]; Cohort 1, 180 mg i.m., Study Day 3) was −42%. The “Serum Testosterone (% CFB)” value ([2]; Cohort 1, 180 mg i.m., Study Day 5) was −48%, the “Serum Testosterone (% CFB)” value ([2]; Cohort 1, 180 mg i.m., Study Day 7) was −52% and the “Serum Testosterone (% CFB)” value ([2]; Cohort 1, 180 mg i.m., Study Day 10) was −61%. For the same compound, the “Serum Testosterone (% CFB)” value ([2]; Cohort 1, 180 mg i.m., Study Day 14) was −67%, the “Serum Testosterone (% CFB)” value ([2]; Cohort 1, 180 mg i.m., Study Day 21) was −71% and the “Serum Testosterone (% CFB)” value ([2]; Cohort 1, 180 mg i.m., Study Day 28) was −73%. For the same compound, the “Serum Testosterone (% CFB)” value ([2]; Cohort 1, 180 mg i.m., Study Day 42) was −65%, the “Serum Testosterone (% CFB)” value ([2]; Cohort 1, 180 mg i.m., Study Day 56) was −55% and the “Serum Testosterone (% CFB)” value ([2]; Cohort 1, 180 mg i.m., Study Day 70) was −47%. For the same compound, the “Serum Testosterone (% CFB)” value ([2]; Cohort 2, 360 mg i.m., Study Day 1 (baseline)) was 0%, the “Serum Testosterone (% CFB)” value ([2]; Cohort 2, 360 mg i.m., Study Day 2) was −11% and the “Serum Testosterone (% CFB)” value ([2]; Cohort 2, 360 mg i.m., Study Day 3) was 0%. For the same compound, the “Serum Testosterone (% CFB)” value ([2]; Cohort 2, 360 mg i.m., Study Day 5) was −28%, the “Serum Testosterone (% CFB)” value ([2]; Cohort 2, 360 mg i.m., Study Day 7) was −49% and the “Serum Testosterone (% CFB)” value ([2]; Cohort 2, 360 mg i.m., Study Day 10) was −51%. For the same compound, the “Serum Testosterone (% CFB)” value ([2]; Cohort 2, 360 mg i.m., Study Day 14) was −67%, the “Serum Testosterone (% CFB)” value ([2]; Cohort 2, 360 mg i.m., Study Day 21) was −72% and the “Serum Testosterone (% CFB)” value ([2]; Cohort 2, 360 mg i.m., Study Day 28) was −71%. The “Serum Testosterone (% CFB)” value ([2]; Cohort 2, 360 mg i.m., Study Day 42) was −64%, the “Serum Testosterone (% CFB)” value ([2]; Cohort 2, 360 mg i.m., Study Day 56) was −60% and the “Serum Testosterone (% CFB)” value ([2]; Cohort 2, 360 mg i.m., Study Day 70) was −56%. For the same compound, the “Serum Testosterone (% CFB)” value ([2]; Cohort 2, 360 mg i.m., Study Day 77) was −56%, the “Serum Testosterone (% CFB)” value ([2]; Cohort 2, 360 mg i.m., Study Day 84) was −49% and the “Serum Testosterone (% CFB)” value ([2]; Cohort 2, 360 mg i.m., Study Day 112) was −79%. For the same compound, the “Serum Testosterone (% CFB)” value ([2]; Cohort 2, 360 mg i.m., Study Day 140) was −63%, the “Serum Testosterone (% CFB)” value ([2]; Cohort 2, 360 mg i.m., Study Day 168) was −32% and the “Serum Testosterone (% CFB)” value ([2]; Cohort 2, 360 mg i.m., Study Day 196) was −56%. For the same compound, the “Serum Testosterone (% CFB)” value ([2]; Cohort 3, 720 mg i.m., Study Day 1 (baseline)) was 0%, the “Serum Testosterone (% CFB)” value ([2]; Cohort 3, 720 mg i.m., Study Day 2) was −41% and the “Serum Testosterone (% CFB)” value ([2]; Cohort 3, 720 mg i.m., Study Day 3) was −50%. The “Serum Testosterone (% CFB)” value ([2]; Cohort 3, 720 mg i.m., Study Day 5) was −48%, the “Serum Testosterone (% CFB)” value ([2]; Cohort 3, 720 mg i.m., Study Day 7) was −65% and the “Serum Testosterone (% CFB)” value ([2]; Cohort 3, 720 mg i.m., Study Day 10) was −74%. For the same compound, the “Serum Testosterone (% CFB)” value ([2]; Cohort 3, 720 mg i.m., Study Day 14) was −82%, the “Serum Testosterone (% CFB)” value ([2]; Cohort 3, 720 mg i.m., Study Day 21) was −87% and the “Serum Testosterone (% CFB)” value ([2]; Cohort 3, 720 mg i.m., Study Day 28) was −85%. For the same compound, the “Serum Testosterone (% CFB)” value ([2]; Cohort 3, 720 mg i.m., Study Day 42) was −81%, the “Serum Testosterone (% CFB)” value ([2]; Cohort 3, 720 mg i.m., Study Day 56) was −83% and the “Serum Testosterone (% CFB)” value ([2]; Cohort 3, 720 mg i.m., Study Day 70) was −81%. For the same compound, the “Serum Testosterone (% CFB)” value ([2]; Cohort 3, 720 mg i.m., Study Day 77) was −80% and the “Serum Testosterone (% CFB)” value ([2]; Cohort 3, 720 mg i.m., Study Day 84) was −76%.

From patent US20250186463A1, “ABIRATERONE DECANOATE PRODRUGS AND USE IN THERAPY” (PROPELLA THERAPEUTICS, INC., priority 2022, published 2025)
